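Cells were grown in 96-well plates and exposed to each compound for 48 hours at five concentrations; endpoints were interpolated linearly between bracketing concentrations, or set to the highest concentration if not reached. Abbreviation: GI50, concentration required for 50% inhibition of growth. TGI denotes the concentration required for complete inhibition of growth.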
Tests used:
Assay in all cases: growth of human tumour cells (NCI), 48 h
[1] = system: UACC-62 melanoma
[2] = system: KM12 colon
[3] = system: HOP-92 NSCLC
[4] = system: UACC-257 melanoma
[5] = system: OVCAR-5 ovarian
[6] = system: MDA-MB-231 breast
[7] = system: A549 NSCLC
[8] = system: HCC-2998 colon
[9] = system: MOLT-4 leukemia
[10] = system: PC-3 prostate
[11] = system: EKVX NSCLC
[12] = system: T-47D breast
[13] = system: SN12C renal
[14] = system: NCI-H23 lung
[15] = system: MALME-3M melanoma
[16] = system: 786-0 renal
[17] = system: SF-539 CNS
[18] = system: TK-10 renal
[19] = system: DU-145 prostate
[20] = system: CCRF-CEM leukemia
[21] = system: NCI-H460 lung
[22] = system: HS 578T breast
[23] = system: NCI/ADR-RES ovarian
[24] = system: HT29 colon
[25] = system: K-562 leukemia
[26] = system: MCF7 breast
[27] = system: SNB-19 CNS
[28] = system: SR leukemia
[29] = system: OVCAR-8 ovarian
[30] = system: HCT-116 colon
[31] = system: SNB-75 CNS
[32] = system: RXF 393 renal
[33] = system: OVCAR-3 ovarian
[34] = system: U251 CNS
[35] = system: NCI-H226 lung
[36] = system: SF-268 CNS
[37] = system: CAKI-1 renal
[38] = system: UO-31 renal
[39] = system: COLO 205 colon
[40] = system: SK-OV-3 ovarian
[41] = system: OVCAR-4 ovarian
[42] = system: ACHN renal
[43] = system: SK-MEL-5 melanoma
[44] = system: IGROV1 ovarian
[45] = system: HOP-62 NSCLC
[46] = system: SF-295 CNS
[47] = system: BT-549 breast
[48] = system: SW-620 colon
[49] = system: SK-MEL-2 melanoma
[50] = system: SK-MEL-28 melanoma
[51] = system: HCT-15 colon
[52] = system: MDA-MB-435
[53] = system: RPMI-8226 leukemia
[54] = system: HL-60(TB) leukemia
[55] = system: LOX IMVI melanoma
[56] = system: M14 melanoma
[57] = system: NCI-H522 lung
[58] = system: A498 renal

Nc1n[nH]c2cccc(C#Cc3cccc(NC(=O)c4ccc(N5CCOCC5)c(C(F)(F)F)c4)c3)c12
GI50 [1]: 0.622 µM | TGI [1]: 2.55 µM | GI50 [2]: 1.29 µM | TGI [2]: 2.91 µM | GI50 [3]: 0.768 µM | TGI [3]: 3.14 µM | GI50 [4]: 1.77 µM | TGI [4]: 4.38 µM | GI50 [5]: 0.599 µM | TGI [5]: 5.26 µM | GI50 [6]: 0.72 µM | TGI [6]: 2.6 µM | GI50 [7]: 1.8 µM | TGI [7]: 6.05 µM | GI50 [8]: 1.32 µM | TGI [8]: 3.15 µM | GI50 [9]: 1.31 µM | TGI [9]: 5.71 µM | GI50 [10]: 1.93 µM | TGI [10]: 6.83 µM | GI50 [11]: 1.61 µM | TGI [11]: 4.17 µM | GI50 [12]: 1.06 µM | TGI [12]: 3.68 µM | GI50 [13]: 1.56 µM | TGI [13]: 5.8 µM | GI50 [14]: 1.37 µM | TGI [14]: 4.6 µM | GI50 [15]: 0.54 µM | TGI [15]: 2.12 µM | GI50 [16]: 2.84 µM | TGI [16]: 7.84 µM | GI50 [17]: 0.31 µM | TGI [17]: 1.54 µM | GI50 [18]: 2.05 µM | TGI [18]: 4.4 µM | GI50 [19]: 1.81 µM | TGI [19]: 4.37 µM | GI50 [20]: 1.36 µM | TGI [20]: 6.58 µM | GI50 [21]: 1.46 µM | TGI [21]: 3.19 µM | GI50 [22]: 0.508 µM | TGI [22]: 3.77 µM | GI50 [23]: 2.25 µM | TGI [23]: 7.65 µM | GI50 [24]: 0.632 µM | TGI [24]: 4.55 µM | TGI [25]: 13.5 µM | GI50 [26]: 1.8 µM | TGI [26]: 7.86 µM | GI50 [27]: 2.75 µM | TGI [27]: 7.39 µM | GI50 [28]: 2.4 µM | TGI [28]: > 100 µM | GI50 [29]: 1.92 µM | TGI [29]: 6.83 µM | GI50 [30]: 0.653 µM | TGI [30]: 2.33 µM | GI50 [31]: 1.07 µM | TGI [31]: 2.47 µM | GI50 [32]: 1.02 µM | TGI [32]: 2.83 µM | GI50 [33]: 1.49 µM | TGI [33]: 5.06 µM | GI50 [34]: 2.06 µM | TGI [34]: 7.41 µM | GI50 [35]: 0.0687 µM | TGI [35]: 8.53 µM | GI50 [36]: 1.3 µM | TGI [36]: 5.35 µM | GI50 [37]: 1.13 µM | TGI [37]: 2.91 µM | GI50 [38]: 0.567 µM | TGI [38]: 2.92 µM | GI50 [39]: 0.525 µM | TGI [39]: 2.33 µM | GI50 [40]: 2.09 µM | TGI [40]: 5.25 µM | GI50 [41]: 1.06 µM | TGI [41]: 2.98 µM | GI50 [42]: 0.725 µM | TGI [42]: 4.78 µM | GI50 [43]: 1.56 µM | TGI [43]: 3 µM | GI50 [44]: 0.682 µM | TGI [44]: 3.54 µM | GI50 [45]: 1.49 µM | TGI [45]: 4.39 µM | GI50 [46]: 1.37 µM | TGI [46]: 5.2 µM | GI50 [47]: 2.08 µM | TGI [47]: 6.8 µM | GI50 [48]: 1.13 µM | TGI [48]: 5.95 µM | GI50 [49]: 0.855 µM | TGI [49]: 3.25 µM | GI50 [50]: 0.867 µM | TGI [50]: 2.72 µM | GI50 [51]: 1.54 µM | TGI [51]: 6.44 µM | GI50 [52]: 1.09 µM | TGI [52]: 3.31 µM | GI50 [53]: 1.98 µM | TGI [53]: 6.5 µM | GI50 [54]: 1.4 µM | TGI [54]: 10.5 µM | GI50 [55]: 0.944 µM | TGI [55]: 2.16 µM | GI50 [56]: 0.473 µM | TGI [56]: 2.2 µM | GI50 [57]: 1.15 µM | TGI [57]: 3.56 µM | GI50 [58]: 0.384 µM | TGI [58]: 2.09 µM

CNC(=O)c1ccccc1Nc1cc(Nc2ccc(N3CCOCC3)cc2OC)ncc1C(F)(F)F
GI50 [1]: 0.419 µM | TGI [1]: 20.4 µM | GI50 [2]: 1.18 µM | TGI [2]: 11.6 µM | GI50 [3]: 0.011 µM | TGI [3]: 0.172 µM | GI50 [4]: 0.346 µM | TGI [4]: 63.7 µM | GI50 [5]: 0.637 µM | TGI [5]: > 100 µM | GI50 [6]: 2.7 µM | TGI [6]: 47.1 µM | GI50 [7]: 1.7 µM | TGI [7]: 22.7 µM | GI50 [8]: 1.68 µM | TGI [8]: 62.4 µM | GI50 [9]: 6.64 µM | TGI [9]: > 86.8 µM | GI50 [10]: 18.6 µM | TGI [10]: > 100 µM | GI50 [11]: 0.341 µM | TGI [11]: 64.8 µM | GI50 [12]: 14.5 µM | TGI [12]: 59.8 µM | GI50 [13]: 12.2 µM | TGI [13]: > 81.5 µM | GI50 [14]: 0.757 µM | TGI [14]: 60.7 µM | GI50 [15]: 0.264 µM | TGI [15]: 63.6 µM | GI50 [16]: 4.12 µM | TGI [16]: 34.6 µM | GI50 [17]: 6.37 µM | TGI [17]: 34 µM | GI50 [18]: 1.23 µM | TGI [18]: 40.2 µM | GI50 [19]: 3.4 µM | TGI [19]: > 81.5 µM | GI50 [20]: 8.49 µM | TGI [20]: 97.8 µM | GI50 [21]: 2.54 µM | TGI [21]: 19.4 µM | GI50 [22]: 13.5 µM | TGI [22]: > 87.6 µM | GI50 [23]: 2.82 µM | TGI [23]: > 68.3 µM | GI50 [24]: 0.333 µM | TGI [24]: 15.4 µM | GI50 [25]: 5 µM | TGI [25]: > 100 µM | GI50 [26]: 0.296 µM | TGI [26]: 34.5 µM | GI50 [27]: 15.6 µM | TGI [27]: > 100 µM | GI50 [28]: 0.248 µM | TGI [28]: 12.4 µM | GI50 [29]: 6.88 µM | TGI [29]: > 100 µM | GI50 [30]: 1.94 µM | TGI [30]: 19.1 µM | GI50 [31]: 1.31 µM | TGI [31]: 43.5 µM | GI50 [32]: 3.08 µM | TGI [32]: 20 µM | GI50 [33]: 13.1 µM | TGI [33]: > 85.3 µM | GI50 [34]: 10.4 µM | TGI [34]: > 87.6 µM | GI50 [35]: 2.42 µM | TGI [35]: 55.6 µM | GI50 [36]: 4.86 µM | TGI [36]: 80.9 µM | GI50 [37]: 1.64 µM | TGI [37]: > 54.6 µM | GI50 [38]: 1.91 µM | TGI [38]: 17.8 µM | GI50 [39]: 0.161 µM | TGI [39]: 1.37 µM | GI50 [40]: 5.44 µM | TGI [40]: 57.6 µM | GI50 [41]: 3.24 µM | TGI [41]: > 100 µM | GI50 [42]: 5.27 µM | TGI [42]: > 84.5 µM | GI50 [43]: 4.55 µM | TGI [43]: 22.1 µM | GI50 [44]: 2.28 µM | TGI [44]: > 100 µM | GI50 [45]: 0.296 µM | TGI [45]: 52.5 µM | GI50 [46]: 1.07 µM | TGI [46]: 41.8 µM | GI50 [47]: 8.14 µM | TGI [47]: 41.8 µM | GI50 [48]: 1.92 µM | TGI [48]: > 65.6 µM | GI50 [49]: 3.82 µM | TGI [49]: 24.9 µM | GI50 [50]: 1.85 µM | TGI [50]: > 83.8 µM | GI50 [51]: 3.09 µM | TGI [51]: > 95.7 µM | GI50 [52]: 0.815 µM | TGI [52]: > 94.3 µM | GI50 [53]: 3.61 µM | TGI [53]: 48 µM | GI50 [54]: 1 µM | TGI [54]: 24.8 µM | GI50 [55]: 1.45 µM | TGI [55]: 18.5 µM | GI50 [56]: 0.739 µM | TGI [56]: 32.2 µM | GI50 [57]: 7.67 µM | TGI [57]: 37.6 µM | GI50 [58]: 2.29 µM | TGI [58]: 10.5 µM

— PubChem BioAssay (NCI)
